Assay results taken from paper PMC6270011, “Design and Synthesis of Arylthiophene-2-Carbaldehydes via Suzuki-Miyaura Reactions and Their Biological Evaluation” (Molecules, 2013).

Target: urease enzyme (Canavalia ensiformis, UniProt P07374)
Conditions: for %age Activity at 25 μg (urease inhibition): 25 µg/mL; for %age Activity at 50 μg (urease inhibition): 50 µg/mL

urease enzyme, sequence (P07374 whole entry, looked up): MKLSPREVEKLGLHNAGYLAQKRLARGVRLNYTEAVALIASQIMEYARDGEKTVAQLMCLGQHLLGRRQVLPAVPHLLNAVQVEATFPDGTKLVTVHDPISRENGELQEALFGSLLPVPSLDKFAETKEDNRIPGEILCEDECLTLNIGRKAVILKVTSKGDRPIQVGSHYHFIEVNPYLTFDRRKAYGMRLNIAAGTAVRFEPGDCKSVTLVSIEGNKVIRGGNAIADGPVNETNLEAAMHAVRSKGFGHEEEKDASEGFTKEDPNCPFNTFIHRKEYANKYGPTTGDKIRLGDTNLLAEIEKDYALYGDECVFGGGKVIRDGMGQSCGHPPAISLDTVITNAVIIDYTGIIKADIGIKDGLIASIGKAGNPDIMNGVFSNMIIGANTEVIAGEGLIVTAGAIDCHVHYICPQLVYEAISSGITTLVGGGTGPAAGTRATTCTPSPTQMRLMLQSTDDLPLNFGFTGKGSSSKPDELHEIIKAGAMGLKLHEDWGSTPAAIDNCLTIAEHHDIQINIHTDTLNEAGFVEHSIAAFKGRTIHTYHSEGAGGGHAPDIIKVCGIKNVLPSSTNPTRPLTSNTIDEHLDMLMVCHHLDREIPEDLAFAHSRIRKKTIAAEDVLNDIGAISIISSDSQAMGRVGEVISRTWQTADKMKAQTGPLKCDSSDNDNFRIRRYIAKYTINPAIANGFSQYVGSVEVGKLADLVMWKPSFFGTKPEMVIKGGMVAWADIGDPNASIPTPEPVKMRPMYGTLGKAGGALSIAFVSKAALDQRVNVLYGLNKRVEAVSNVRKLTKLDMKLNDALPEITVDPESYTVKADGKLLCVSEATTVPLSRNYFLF

SMILES | %age Activity at 25 μg (urease inhibition) [%] | %age Activity at 50 μg (urease inhibition) [%]
COc1ccc(-c2csc(C=O)c2)cc1 [2f, 4-(4-Methoxyphenyl)thiophene-2-carbaldehyde] | 42.3 ± 0.0007 | 80.2 ± 0.0017
O=Cc1cc(-c2ccc(Cl)s2)cs1 [2c] | 44 ± 0.0042 | 87.8 ± 0.006
O=Cc1cc(-c2ccccc2)cs1 [2a, 4-Phenylthiophene-2-carbaldehyde] | 45 ± 0.0162 | 86.9 ± 0.012
Cc1cc(C)cc(-c2csc(C=O)c2)c1 [2g, 4-(3,5-Dimethylphenyl)thiophene-2-carbaldehyde] | 42.5 ± 0.0070 | 87.2 ± 0.5
Cc1ccc(-c2csc(C=O)c2)cc1 [2e, 4-p-Tolylthiophene-2-carbaldehyde] | 44.5 ± 0.057 | 76.5 ± 0.05
Cc1ccc(-c2csc(C=O)c2)s1 [2j, 5-Methyl-2,3-bisthiophene-5-carbaldehyde] | 2 ± 0.219 | 9.7 ± 0.2
O=Cc1cc(-c2ccc(Cl)c(Cl)c2)cs1 [2h, 4-(3,4-Dichlorophenyl)thiophene-2-carbaldehyde] | 44 ± 0.084 | 86.4 ± 0.44
O=Cc1cc(-c2cc(C(F)(F)F)cc(C(F)(F)F)c2)cs1 [2b, 4-(3,5-Bis(trifloromethyl)phenyl)thiophene-2-carbaldehyde] | 35 ± 0.014 | 87.0 ± 0.084
N#Cc1cc(-c2csc(C=O)c2)cc(C(F)(F)F)c1 [2d, 3-(5-Formylthiophene-3-yl)-5-(trifloromethyl)benzonitrile] | 37 ± 0.0042 | 88.7 ± 0.005
O=Cc1cc(-c2ccc(F)c(Cl)c2)cs1 [2i, 4-(3-Chloro-4-fluorophenyl)thiophene-2-carbaldehyde] | 46.2 ± 0.0042 | 90.6 ± 0.05
